One test relates to FRDA lymphocytes. The test is described as follows: Suppression of lipid peroxidation (C11-BODIPY581/591, FACS) in FRDA lymphocytes treated with diethyl maleate. It is filed as cell-based. The following applies: Lymphocyte, DEM, read-out: Scavenging activity (%), suppression of lipid peroxidation. The text has this:
Several methods for assaying lipid peroxidation in vitro have been developed (Kuypers et al. (1987) Biochim Biophys Acta. 25, 266-274; Pap et al. (1999) FEBS Lett. 453, 278-282; Drummen et al. (2002) Free RadicBiol Med. 33, 473-490). Almost all of these methods are based on inhibition of free radical-induced oxidation reactions. A widely used fluorescence assay for lipid peroxidation uses lipid soluble cis-parinaric acid as a probe. cis-parinaric acid loses its fluorescence (λexc/em: 320/432 nm) upon interaction with peroxyl radicals and retains its fluorescence in the presence of radical quenchers. cis-parinaric acid is, however, air sensitive, photolabile and absorbs light in the UV region of the spectrum (at ˜320 nm). […] In practical terms, the results obtained using cis-parinaric as a probe for lipid peroxidation are confounded due to the overlapping of the compounds emission spectra with the cis-parinaric emission spectrum. C11-BODIPY^581/591 Oxidation to Measure Lipid Peroxidation To overcome the problem of spectral overlap using cis-parinaric acid, a fluorescence assay for lipid peroxidation using a lipophilic probe belonging to the BODIPY class of fluorescent dyes was used C11-BODIPY^581/591 (4,4-difluoro-5(4-phenyl-1,3-butadienyl)-4-bora-3a, 4a-diaza-s-indacene-3-propionic acid) fluorescent shifts from red to green upon oxidation. C11-BODIPY^581/591 (Molecular Probes, Eugene, Oreg., USA) stock solution concentrations were determined by measuring the absorption of C11-BODIPY^581/591 at 582 nm using a molar extinction coefficient of 140,000 mol^−1 cm^−1 (R. P. Haugland, (1999) Handbook of Fluorescent Probes and Research Chemicals, Molecular Probes, Inc., Eugene, Oreg.). The lipid peroxidation inducer 2,2′-Azobis (2-amidino-propane dihydrochloride) (AAPH) and the antioxidant compound α-tocopherol (α-TOH) were obtained from Sigma (St. Louis, Mo., USA). Phospholipid bilayers were prepared from 1-stearoyl-2-oleoyl-phosphatidylcholine (SOPC) and 1,2-dilinoleoyl-phosphatidylcholine (DLPC) and were purchased from Avanti® polar lipids, Inc., (Alabaster, Ala., USA). Preparation of Liposomes Phosphotidylcholine (PC) liposomes were prepared as described before (Guey-Shuang et al. (1982) Lipids. 17, 403-413). Briefly, DLPC (25 mg) were dissolved in chloroform and the solvent was removed by nitrogen evaporation (˜2 hours) to give a thin film of PC in a round bottom flask. The lipid film was hydrated with 50 mL of 10 mM Tris-HCl (pH 7.4), 100 mM KCl, shaken and sonicated for 15 seconds. The liposomes obtained were filtered several times through […] membrane filter. Measurement of C11-BODIPY^581/591 Oxidation C11-BODIPY^581/591 was incorporated into liposomes and oxidized by peroxyl radicals derived from the decomposition of AAPH in the presence and absence of compounds. Liposomes (1 mg/mL), suspended in 10 mM Tris-HCl (pH 7.4), 100 mM KCl, were transferred to a quartz 1 mL cuvette and placed in a Varian Cary Eclipse fluorometer (Varian, Cary, N.C.) equipped with a thermostatted cuvette holder at 40° C. Liposomes were pre-incubated for 10 min with 200 nM C11-BODIPY^581/591 to allow their incorporation into the lipid phase of the liposomes. After the addition of AAPH (10 mM) the decay of the red fluorescence was followed at λ exc=570 nm, λ em=600 nm. Relative fluorescence units were normalized to 100% intensity. Results obtained were verified by repeating experiments N=3 independent experiments. Measurement of C11-BODIPY^581/591 Oxidation in Cell Culture A quantitative FACS analysis of lipid peroxidation of FRDA lymphocytes, which had been treated with diethyl maleate following incubation in the presence and absence of the test compounds, was measured as described (Khdour et al. (2011) Pharmaceut. Res. 28, 2896-2909). Briefly, FRDA lymphocytes (5×10^5 cell/mL) were treated with the test compounds at final concentrations of 5 and 10 μM and incubated at 37° C. for 16 h in a humidified atmosphere containing 5% CO2 in air. […]

Test [1] relates to Friedreich's ataxia lymphoblast cell line GM15850. The test is described as follows: Cytoprotection (trypan blue exclusion assay) of DEM-treated FRDA lymphocytes. It is filed as cell-based. The following applies: Homo sapiens, GM15850, DEM alone 18 ± 10% viability, read-out: Cytoprotection (cell viability, % of untreated control). The protocol:
Cell viability was determined by trypan blue exclusion assay in Friedreich's ataxia lymphoblast cell line GM15850 (Coriell Institute, New Jersey). This technique was used to assess the cytoprotective effects of the tested compounds in cultured cells treated with DEM to induce cell death by GSH depletion. The viability of DEM-treated FRDA cells was determined by their ability to exclude the dye trypan blue. Viable cells exclude trypan blue, whereas non-viable cells take up the dye and stain blue. Briefly, FRDA lymphocytes were grown in RPMI 1640 medium (Gibco) supplemented with 15% fetal calf serum, 2 mM glutamine (HyClone) and 1% penicillin-streptomycin mix (Cellgro). Cells were seeded at a density of 5×10^5 cells/mL and treated with different concentrations of the indicated compounds. Cells were incubated at 37° C. in a humidified atmosphere of 5% CO2 in air for 17 h. After pre-incubation, the cells were treated with 5 mM DEM. Cell viability was determined by staining cells with 0.4% trypan blue using a hemacytometer. At least 500 cells were counted in each experimental group. At the time of assay, <20% of DEM treated cells were viable (trypan blue negative), whereas in non DEM-treated control, >90% cells were viable. Cell viability was expressed as the percentage of control. Data are expressed as means±S.E.M. (n=3).
Cell viability was determined by trypan blue exclusion assay in Friedreich's ataxia lymphoblast cell line GM15850 (Coriell Institute). This technique was used to assess the cytoprotective effects of the compounds in cultured cells treated with diethyl maleate (DEM) to induce cell death by glutathione (GSH) depletion. The viability of DEM-treated FRDA cells was determined by their ability to exclude the dye trypan blue. Viable cells exclude trypan blue, whereas non-viable cells take up the dye and stain blue. […] Benzoquinone analogue 9 afforded greater cyoprotection to FRDA lymphocytes at 5 μM concentration than did the tert-butyl ester 6 (74 vs 50%).

The target in test [2] is bovine heart mitochondrial complex I (Bos taurus, UniProt P03887+P17694+P42026). The test is described as follows: Complex I (NADH-Q1 oxidoreductase) inhibition in submitochondrial particles. As to conditions: submitochondrial particles, 30° C.; for IC50: read-out: Complex I inhibition IC50; for Emax: read-out: Complex I inhibition Imax. In kind it is biochemical.
Sequence of bovine heart mitochondrial complex I (P25708 21-464): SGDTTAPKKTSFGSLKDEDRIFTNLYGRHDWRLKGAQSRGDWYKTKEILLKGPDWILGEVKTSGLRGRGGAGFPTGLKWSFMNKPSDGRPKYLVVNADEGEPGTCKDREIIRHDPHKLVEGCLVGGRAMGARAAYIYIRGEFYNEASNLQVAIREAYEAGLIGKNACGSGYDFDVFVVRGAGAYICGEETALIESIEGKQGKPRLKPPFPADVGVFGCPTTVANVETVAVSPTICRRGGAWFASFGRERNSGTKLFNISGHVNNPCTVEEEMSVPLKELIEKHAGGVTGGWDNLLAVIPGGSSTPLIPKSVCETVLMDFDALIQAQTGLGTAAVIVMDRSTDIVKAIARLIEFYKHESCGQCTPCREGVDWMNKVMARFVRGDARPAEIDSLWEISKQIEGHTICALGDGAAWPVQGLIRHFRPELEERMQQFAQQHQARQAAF
Sequence of bovine heart mitochondrial complex I (P42026 38-216): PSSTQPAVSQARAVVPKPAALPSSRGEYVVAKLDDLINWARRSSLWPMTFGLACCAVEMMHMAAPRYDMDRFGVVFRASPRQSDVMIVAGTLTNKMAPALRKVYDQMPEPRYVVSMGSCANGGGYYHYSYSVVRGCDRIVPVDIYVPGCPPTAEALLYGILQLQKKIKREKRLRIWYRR
Sequence of bovine heart mitochondrial complex I (P17694 34-463): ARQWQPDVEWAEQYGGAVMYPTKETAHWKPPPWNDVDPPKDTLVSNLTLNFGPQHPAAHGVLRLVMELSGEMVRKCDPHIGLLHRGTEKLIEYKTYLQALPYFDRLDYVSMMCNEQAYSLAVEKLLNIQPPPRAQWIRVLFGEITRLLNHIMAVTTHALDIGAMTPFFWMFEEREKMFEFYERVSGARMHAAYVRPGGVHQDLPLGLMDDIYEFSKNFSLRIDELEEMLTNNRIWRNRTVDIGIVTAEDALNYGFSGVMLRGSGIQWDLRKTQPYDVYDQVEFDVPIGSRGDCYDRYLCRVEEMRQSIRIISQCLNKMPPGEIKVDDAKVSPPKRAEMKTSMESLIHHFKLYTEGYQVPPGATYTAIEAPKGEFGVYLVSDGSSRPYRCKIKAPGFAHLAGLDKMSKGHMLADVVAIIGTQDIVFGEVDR
Sequence of bovine heart mitochondrial complex I (P15690 24-727, further chain): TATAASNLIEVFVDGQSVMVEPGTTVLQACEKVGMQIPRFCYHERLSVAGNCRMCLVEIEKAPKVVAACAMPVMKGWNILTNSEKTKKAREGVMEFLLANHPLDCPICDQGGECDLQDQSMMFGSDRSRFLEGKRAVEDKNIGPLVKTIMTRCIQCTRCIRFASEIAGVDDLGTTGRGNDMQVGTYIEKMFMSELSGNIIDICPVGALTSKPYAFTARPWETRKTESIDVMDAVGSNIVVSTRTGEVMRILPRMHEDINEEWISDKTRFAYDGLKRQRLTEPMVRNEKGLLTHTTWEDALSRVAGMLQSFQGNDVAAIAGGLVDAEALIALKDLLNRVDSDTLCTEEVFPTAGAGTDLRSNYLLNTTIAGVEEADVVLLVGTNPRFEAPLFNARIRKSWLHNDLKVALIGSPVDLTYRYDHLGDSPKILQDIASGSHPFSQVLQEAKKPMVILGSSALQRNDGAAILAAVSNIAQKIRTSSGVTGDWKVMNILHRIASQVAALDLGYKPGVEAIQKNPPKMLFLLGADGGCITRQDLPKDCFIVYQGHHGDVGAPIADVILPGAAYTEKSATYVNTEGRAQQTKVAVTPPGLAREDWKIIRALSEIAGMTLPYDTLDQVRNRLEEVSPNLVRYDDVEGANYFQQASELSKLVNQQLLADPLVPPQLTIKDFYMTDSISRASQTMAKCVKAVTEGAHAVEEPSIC
Sequence of bovine heart mitochondrial complex I (P03887 whole entry): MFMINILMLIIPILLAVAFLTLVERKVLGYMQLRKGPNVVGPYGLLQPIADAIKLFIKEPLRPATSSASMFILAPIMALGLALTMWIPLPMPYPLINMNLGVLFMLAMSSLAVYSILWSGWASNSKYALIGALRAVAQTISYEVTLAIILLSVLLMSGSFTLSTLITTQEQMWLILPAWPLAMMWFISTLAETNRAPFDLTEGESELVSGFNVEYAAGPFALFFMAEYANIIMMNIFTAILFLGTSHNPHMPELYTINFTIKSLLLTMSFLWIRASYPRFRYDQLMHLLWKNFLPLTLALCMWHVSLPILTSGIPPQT
Sequence of bovine heart mitochondrial complex I (P42028 37-212, further chain): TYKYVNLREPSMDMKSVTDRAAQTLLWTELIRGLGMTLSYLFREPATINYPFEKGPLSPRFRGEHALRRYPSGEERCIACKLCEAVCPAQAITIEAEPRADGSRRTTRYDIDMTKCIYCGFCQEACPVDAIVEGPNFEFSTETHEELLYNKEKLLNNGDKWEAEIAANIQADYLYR
Test [3] deals with NADH oxidase (complexes I, III and IV). Kind of test: NADH oxidase activity (complexes I, III and IV) in submitochondrial particles. It is filed as biochemical, bovine.

The source of these data is patent publication US9957214B2, “Multifunctional radical quenchers” (ARIZONA BOARD OF REGENTS ON BEHALF OF ARIZONA STATE …, priority 2012, dated 2018).

The structures appear in SMILES notation.

By viability is commonly meant the share of living cells, or the viability signal relative to a control. By IC50 is commonly meant the concentration that inhibits the measured activity by half. `CCCCCCCCCCCCCC1=C(OC)C(=O)C=C(NCCCC(=O)O)C1=O` [Compound 9, 4-(4-methoxy-3,6-dioxo-5-tridecylcyclohexa-1,4-dienylamino)butanoic Acid]: in the test with FRDA lymphocytes, the inhibition at 5 µM is 41 ± 7.2% and the inhibition at 10 µM was 51 ± 5%. The viability at 5 µM in test [1] was found to be 74%. Besides, in test [2], the IC50 stood at 1900 ± 100 nM and the Emax was 98 ± 2.8%.

With `CCCCCCCCCCCCCC1=C(O)C(=O)C=C(NCCCC(=O)OCc2ccccc2)C1=O` [Compound 11, Benzyl 4-(4-hydroxy-3,6-dioxo-5-tridecylcyclohexa-1,4-dienylamino)butanoate], the viability at 5 µM in test [1] came out at 48 ± 5.8%. In addition, in test [2], the IC50 worked out at 1700 ± 100 nM and the Emax stood at 70 ± 0.31%.

`CCCCCCCCCCCCCC1=C(OC)C(=O)C=C(NCCCC(=O)OCc2ccccc2)C1=O` [Compound 12, benzyl 4-(4-methoxy-3,6-dioxo-5-tridecylcyclohexa-1,4-dienylamino)butanoate]: in test [1], the viability at 5 µM is 71 ± 6.4%. Further, in test [2], the IC50 was 34000 ± 2500 nM and the Emax was at least 53%. The “NADH oxidase activity (Complex I, III, IV) %” value in test [3] (1 μM) is given as 67 ± 6.0%. For the same compound, the “NADH oxidase activity (Complex I, III, IV) %” value in test [3] (5 μM) stood at 48 ± 3.0%.

Take `CCCCCCCCCCCCCC1=C(O)C(=O)C=C(NCCCC(=O)OCCCC)C1=O` [Compound 14, Butyl 4-(4-hydroxy-3,6-dioxo-5-tridecylcyclohexa-1,4-dienylamino)butanoate]: the viability at 5 µM in test [1] came to 58 ± 9%. Besides, in test [2], the IC50 worked out at 11000 ± 600 nM and the Emax was found to be 58 ± 4%.

On to `CCCCCCCCCCCCCC1=C(O)C(=O)C=C(NCCCC(=O)OCCCCCC)C1=O` [Compound 17, Hexyl 4-(4-hydroxy-3,6-dioxo-5-tridecylcyclohexa-1,4-dienylamino)butanoate], for which, in the test on FRDA lymphocytes, the inhibition at 5 µM is 9 ± 2.5% and the inhibition at 10 µM amounted to 40 ± 9.9%. The viability at 5 µM in test [1] is 49 ± 9.9%. In test [2], the IC50 is 2000 ± 400 nM and the Emax is 51 ± 1.4%.

For `CCCCCCCCCCCCCC1=C(O)C(=O)C=C(N(C)CCCC(=O)OCCCCCC)C1=O` [Compound 23, hexyl 4-((4-hydroxy-3,6-dioxo-5-tridecylcyclohexa-1,4-dienyl)(methyl)amino)-butanoate], the half-inhibitory concentration (IC50) in test [2] worked out at 3400 ± 100 nM. For the same compound, in test [2], the Emax amounted to 78 ± 0.8%. Also, the “NADH oxidase activity (Complex I, III, IV) %” value in test [3] (1 μM) is 82 ± 2.4%; in test [3] (5 μM), 36 ± 1.0%; in test [3] (10 μM), 18 ± 0.5%.

For `CCCCCCCCCCCCCC1=C(OC)C(=O)C=C(N(C)CCCC(=O)OCCCCCC)C1=O` [Compound 24, Hexyl 4-((4-methoxy-3,6-dioxo-5-tridecylcyclohexa-1,4-dienyl)(methyl)amino)butanoate], the IC50 in test [2] came to 1900 ± 100 nM. For the same compound, the Emax in test [2] came out at 90 ± 0.7%. In addition, the “NADH oxidase activity (Complex I, III, IV) %” value in test [3] (1 μM) was 81 ± 1.5%; in test [3] (5 μM), 33 ± 0.9%; in test [3] (10 μM), 17 ± 0.4%.

With `CCCCCCCCCCCCCC1=C(O)C(=O)C=C(N(C)C)C1=O` [Compound 25, 5-(dimethylamino)-2-hydroxy-3-tridecylcyclohexa-2,5-diene-1,4-dione], in test [1], the viability at 0.1 µM was determined as 21 ± 3%, the viability at 0.5 µM is 18 ± 4% and the viability at 2.5 µM worked out at 24 ± 3%. In test [2], the IC50 turned out to be 1500 ± 100 nM and the Emax stood at 90 ± 3.4%. Moreover, the “NADH oxidase activity (Complex I, III, IV) %” value in test [3] (1 μM) is on record as 18 ± 0.5%. The “NADH oxidase activity (Complex I, III, IV) %” value in test [3] (5 μM) came out at 6.6 ± 0.1%. In addition, in test [3] (10 μM), the “NADH oxidase activity (Complex I, III, IV) %” value stood at 5.0 ± 0.1%.

Regarding `CCCCCCCCCCCCCC1=C(OC)C(=O)C=C(N(C)C)C1=O` [Compound 26, 5-(dimethylamino)-2-methoxy-3-tridecylcyclohexa-2,5-diene-1,4-dione], in test [1], the viability at 0.1 µM was 53 ± 9%, the viability at 0.5 µM amounted to 66 ± 3% and the viability at 2.5 µM worked out at 90 ± 3%. For the same compound, in test [2], the half-maximal inhibitory concentration (IC50) is 1600 ± 30 nM and the Emax is 90 ± 1.1%. For the same compound, the “NADH oxidase activity (Complex I, III, IV) %” value in test [3] (1 μM) amounted to 70 ± 2.1%. Further, the “NADH oxidase activity (Complex I, III, IV) %” value in test [3] (5 μM) was determined as 34 ± 0.6%. In test [3] (10 μM), the “NADH oxidase activity (Complex I, III, IV) %” value worked out at 15 ± 0.4%.

Take `CCCCCCCCCCCCCC1=C(O)C(=O)C=C(N(C)CCCC(=O)OC(C)(C)C)C1=O` [Compound 29, tert-butyl 4-((4-hydroxy-3,6-dioxo-5-tridecylcyclohexa-1,4-dienyl)(methyl)amino)-butanoate]: in test [1], the viability at 1 µM stood at 21% and the viability at 2.5 µM amounted to 74 ± 4%.

For `CCCCCCCCCCCCCC1=C(OC)C(=O)C=C(N(C)CCCC(=O)OC(C)(C)C)C1=O` [Compound 30, tert-butyl 4-((4-methoxy-3,6-dioxo-5-tridecylcyclohexa-1,4-dienyl)(methyl)amino)-butanoate], in the test on FRDA lymphocytes, the inhibition at 5 µM was determined as 97% and the inhibition at 10 µM came out at 100%. Also, in test [1], the viability at 1 µM was 64 ± 15% and the viability at 2.5 µM amounted to 82 ± 5%.
